Laboratory results published in publication PMC5760531, “Action Potential Recording and Pro-arrhythmia Risk Analysis in Human Ventricular Trabeculae” (Frontiers in Physiology, 2018).

System: human ventricular trabeculae
Assay: Action potential recording and pro-arrhythmic score analysis in human ventricular trabeculae (hVT);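 further: sharp microelectrode action potential recordings at 37°C in Tyrode-perfused trabeculae, 4 cumulative concentrations each applied 31 min, values averaged over last 30 APs, vehicle 0.1% DMSO as control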
Conditions: 1Hz; for Beat Escape (raw data) / EADs (raw data) / Refractoriness Escape (raw data): n=4 trabeculae
Method: Briefly, the human heart was transferred into a dissection vessel containing a cold (4°C), fresh proprietary dissection solution. The heart was maintained completely submerged in dissection solution. Ventricular trabeculae were dissected and transferred to the recording chamber.
Briefly, a single tissue was mounted into the experimental chamber filled with oxygenated Tyrode's external solution. The temperature of the solution was maintained at 37°C with flow rate at 5 mL per minute. The tissue was allowed to equilibrate for 30–60 min with stimulation (3 V, 3 ms) at a frequency of 1.0 Hz. High impedance borosilicate microelectrodes were prepared with a tip resistance of 10–20 MΩ once filled with 3 M KCl. Upon tissue impalement, the membrane potential was allowed to stabilize (typically, around −85 mV). Tissues with resting membrane potentials more positive than −75 mV were rejected. Bipolar stimulation at 1.5x threshold was applied and recordings were performed in continuous mode with sampling at 20 kHz using ADInstruments and LabChart Software.
Interruption of perfusion/oxygenation; (2). Absence of Aps following stimulation at baseline; (3). Time frame of drug exposure not respected; (4). Unstable response to stimulation at baseline; (5). Resting membrane potential (RMP) > −75 mV; 7). Maximal amplitude of AP (AMAX) <70 mV; 8). AP duration at 90% repolarization (APD90) <200 ms or >450 ms.
Experimental Procedure: Each test article was evaluated at 4 concentrations in 4 ventricular trabeculae derived from a minimum of 2 donor hearts. Testing concentrations were chosen based upon human free ETPC, aiming to cover 1–100-fold of human free ETPC. […] Briefly, following stabilization of each tissue, APs were collected and assessed for 31 min in vehicle control solution (Tyrode with 0.1% DMSO) at stimulation frequencies of 1 Hz for 25 min, 2 Hz for 3 min and then 1 Hz for 3 min. Following this vehicle control period, 4 concentrations of a test compound were applied sequentially and cumulatively. Each concentration was applied for 31 min with the same stimulation sequence as in vehicle controls.
For each frequency tested, the last 30 APs acquired at the end of the period were averaged for vehicle controls and for each test article concentration. Analysis at 1 Hz included only the last 30 APs of the initial 25-min incubation period. The following AP parameters and pro-arrhythmia variables were analyzed offline upon the completion of recordings:
• RMP (mV) • AMAX (mV) • AP duration at percent repolarization (APD20, APD30, APD50, APD60, APD90) (ms) • Short term variability analysis of AP duration (STV): Beat-to-beat variability of repolarization was quantified as STV from APD90 Poincare plots over a period of 30 sec.
Compound effects were quantified relative to the data collected during the vehicle control period (see Figure 1). […] Additionally, based on AnaBios historical data, threshold values for changes over baseline control for AP instability, APD alternans, Maximum APD dispersion and ERP (APD) were based upon an effect level of 10%. When applicable, differences were tested for statistical significance using the unpaired Student's t-test. A value of P < 0.05 was considered significant.
AP parameters and pro-arrhythmia variables were combined into a meaningful, single score to assess the pro-arrhythmic risk of a compound at each concentration tested. The pro-arrhythmic potential of compounds at 1 or 2 Hz was determined by assigning a weighted scale to each variable (Table 1).

With Cc1cccc(C)c1OCC(C)N (stereo not drawn) [MEXILETINE, Mexiletine] the “AMAX (average raw data)” value (0.7-FOLD free ETPC (4.1µM)) was 111, the “AMAX percentage change compared to vehicle control” value (from here on “AMAX percentage change”) (0.7-FOLD free ETPC (4.1µM)) was 0% and the “APD30 (average raw data)” value (0.7-FOLD free ETPC (4.1µM)) was 174. The “APD30 percentage change compared to vehicle control” value (from here on “APD30 percentage change”) (0.7-FOLD free ETPC (4.1µM)) was -5%, the “APD50 (average raw data)” value (0.7-FOLD free ETPC (4.1µM)) was 231 and the “APD50 percentage change compared to vehicle control” value (shortened to “APD50 percentage change”) (0.7-FOLD free ETPC (4.1µM)) was -3%. For the same compound, the “APD90 (average raw data)” value (0.7-FOLD free ETPC (4.1µM)) was 321, the “APD90 percentage change compared to vehicle control” value (“APD90 percentage change” below) (0.7-FOLD free ETPC (4.1µM)) was -1% and the “Alternans (average raw data)” value (0.7-FOLD free ETPC (4.1µM)) was 0.72. The “Alternans percentage change compared to vehicle control” value (from here on “Alternans percentage change”) (0.7-FOLD free ETPC (4.1µM)) was 7%, the “Beat Escape percentage change compared to vehicle control” value (shortened to “Beat Escape percentage change”) (0.7-FOLD free ETPC (4.1µM)) was 25% and the “EADs percentage change compared to vehicle control” value (shortened to “EADs percentage change”) (0.7-FOLD free ETPC (4.1µM)) was 0%. The “ERP (average raw data)” value (0.7-FOLD free ETPC (4.1µM)) was 0.43, the “ERP percentage change compared to vehicle control” value (shortened to “ERP percentage change”) (0.7-FOLD free ETPC (4.1µM)) was 1% and the “Max Dispersion (average raw data)” value (0.7-FOLD free ETPC (4.1µM)) was 3.75. The “Max Dispersion percentage change compared to vehicle control” value (from here on “Max Dispersion percentage change”) (0.7-FOLD free ETPC (4.1µM)) was 0%, the “RMP (average raw data)” value (0.7-FOLD free ETPC (4.1µM)) was -91 and the “RMP percentage change compared to vehicle control” value (“RMP percentage change” below) (0.7-FOLD free ETPC (4.1µM)) was 1%. For the same compound, the “Refractoriness Escape percentage change compared to vehicle control” value (“Refractoriness Escape percentage change” below) (0.7-FOLD free ETPC (4.1µM)) was 0%, the “STV (average raw data)” value (0.7-FOLD free ETPC (4.1µM)) was 0.51 and the “STV percentage change compared to vehicle control” value (from here on “STV percentage change”) (0.7-FOLD free ETPC (4.1µM)) was 1%. The “Triangulation (average raw data)” value (0.7-FOLD free ETPC (4.1µM)) was 147, the “Triangulation percentage change compared to vehicle control” value (“Triangulation percentage change” for short) (0.7-FOLD free ETPC (4.1µM)) was 4% and the “Beat Escape (raw data)” value (0.7-FOLD free ETPC (4.1µM)) was 1. For the same compound, the “EADs (raw data)” value (0.7-FOLD free ETPC (4.1µM)) was 0, the “Refractoriness Escape (raw data)” value (0.7-FOLD free ETPC (4.1µM)) was 0 and the “AMAX (average raw data)” value (7-FOLD free ETPC (4.1µM)) was 109. The “AMAX percentage change” value (7-FOLD free ETPC (4.1µM)) was -3%, the “APD30 (average raw data)” value (7-FOLD free ETPC (4.1µM)) was 158 and the “APD30 percentage change” value (7-FOLD free ETPC (4.1µM)) was -13%. For the same compound, the “APD50 (average raw data)” value (7-FOLD free ETPC (4.1µM)) was 206, the “APD50 percentage change” value (7-FOLD free ETPC (4.1µM)) was -14% and the “APD90 (average raw data)” value (7-FOLD free ETPC (4.1µM)) was 297. For the same compound, the “APD90 percentage change” value (7-FOLD free ETPC (4.1µM)) was -8%, the “Alternans (average raw data)” value (7-FOLD free ETPC (4.1µM)) was 0.68 and the “Alternans percentage change” value (7-FOLD free ETPC (4.1µM)) was 0%. The “Beat Escape percentage change” value (7-FOLD free ETPC (4.1µM)) was 25%, the “EADs percentage change” value (7-FOLD free ETPC (4.1µM)) was 0% and the “ERP (average raw data)” value (7-FOLD free ETPC (4.1µM)) was 0.41. The “ERP percentage change” value (7-FOLD free ETPC (4.1µM)) was -5%, the “Max Dispersion (average raw data)” value (7-FOLD free ETPC (4.1µM)) was 2.82 and the “Max Dispersion percentage change” value (7-FOLD free ETPC (4.1µM)) was -25%. For the same compound, the “RMP (average raw data)” value (7-FOLD free ETPC (4.1µM)) was -91, the “RMP percentage change” value (7-FOLD free ETPC (4.1µM)) was 1% and the “Refractoriness Escape percentage change” value (7-FOLD free ETPC (4.1µM)) was 0%. For the same compound, the “STV (average raw data)” value (7-FOLD free ETPC (4.1µM)) was 0.49, the “STV percentage change” value (7-FOLD free ETPC (4.1µM)) was -3% and the “Triangulation (average raw data)” value (7-FOLD free ETPC (4.1µM)) was 140. The “Triangulation percentage change” value (7-FOLD free ETPC (4.1µM)) was -1%, the “Beat Escape (raw data)” value (7-FOLD free ETPC (4.1µM)) was 1 and the “EADs (raw data)” value (7-FOLD free ETPC (4.1µM)) was 0. For the same compound, the “Refractoriness Escape (raw data)” value (7-FOLD free ETPC (4.1µM)) was 0, the “AMAX (average raw data)” value (24-FOLD free ETPC (4.1µM)) was 102 and the “AMAX percentage change” value (24-FOLD free ETPC (4.1µM)) was -9%. For the same compound, the “APD30 (average raw data)” value (24-FOLD free ETPC (4.1µM)) was 137, the “APD30 percentage change” value (24-FOLD free ETPC (4.1µM)) was -25% and the “APD50 (average raw data)” value (24-FOLD free ETPC (4.1µM)) was 180. For the same compound, the “APD50 percentage change” value (24-FOLD free ETPC (4.1µM)) was -25%, the “APD90 (average raw data)” value (24-FOLD free ETPC (4.1µM)) was 282 and the “APD90 percentage change” value (24-FOLD free ETPC (4.1µM)) was -13%. The “Alternans (average raw data)” value (24-FOLD free ETPC (4.1µM)) was 17.51, the “Alternans percentage change” value (24-FOLD free ETPC (4.1µM)) was 2481% and the “Beat Escape percentage change” value (24-FOLD free ETPC (4.1µM)) was 75%. The “EADs percentage change” value (24-FOLD free ETPC (4.1µM)) was 0%, the “ERP (average raw data)” value (24-FOLD free ETPC (4.1µM)) was 0.39 and the “ERP percentage change” value (24-FOLD free ETPC (4.1µM)) was -8%. The “Max Dispersion (average raw data)” value (24-FOLD free ETPC (4.1µM)) was 50.33, the “Max Dispersion percentage change” value (24-FOLD free ETPC (4.1µM)) was 1242% and the “RMP (average raw data)” value (24-FOLD free ETPC (4.1µM)) was -89. The “RMP percentage change” value (24-FOLD free ETPC (4.1µM)) was -1%, the “Refractoriness Escape percentage change” value (24-FOLD free ETPC (4.1µM)) was 0% and the “STV (average raw data)” value (24-FOLD free ETPC (4.1µM)) was 12.96. For the same compound, the “STV percentage change” value (24-FOLD free ETPC (4.1µM)) was 2873%, the “Triangulation (average raw data)” value (24-FOLD free ETPC (4.1µM)) was 145 and the “Triangulation percentage change” value (24-FOLD free ETPC (4.1µM)) was 3%. For the same compound, the “Beat Escape (raw data)” value (24-FOLD free ETPC (4.1µM)) was 3, the “EADs (raw data)” value (24-FOLD free ETPC (4.1µM)) was 0 and the “Refractoriness Escape (raw data)” value (24-FOLD free ETPC (4.1µM)) was 0. For the same compound, the “AMAX (average raw data)” value (73-FOLD free ETPC (4.1µM)) was 86, the “AMAX percentage change” value (73-FOLD free ETPC (4.1µM)) was -22% and the “APD30 (average raw data)” value (73-FOLD free ETPC (4.1µM)) was 120. For the same compound, the “APD30 percentage change” value (73-FOLD free ETPC (4.1µM)) was -27%, the “APD50 (average raw data)” value (73-FOLD free ETPC (4.1µM)) was 165 and the “APD50 percentage change” value (73-FOLD free ETPC (4.1µM)) was -27%. For the same compound, the “APD90 (average raw data)” value (73-FOLD free ETPC (4.1µM)) was 277, the “APD90 percentage change” value (73-FOLD free ETPC (4.1µM)) was -9% and the “Alternans (average raw data)” value (73-FOLD free ETPC (4.1µM)) was 2.53. The “Alternans percentage change” value (73-FOLD free ETPC (4.1µM)) was 272%, the “EADs percentage change” value (73-FOLD free ETPC (4.1µM)) was 0% and the “ERP (average raw data)” value (73-FOLD free ETPC (4.1µM)) was 0.42. The “ERP percentage change” value (73-FOLD free ETPC (4.1µM)) was -1%, the “Max Dispersion (average raw data)” value (73-FOLD free ETPC (4.1µM)) was 6.30 and the “Max Dispersion percentage change” value (73-FOLD free ETPC (4.1µM)) was 68%. For the same compound, the “RMP (average raw data)” value (73-FOLD free ETPC (4.1µM)) was -76, the “RMP percentage change” value (73-FOLD free ETPC (4.1µM)) was -13% and the “Refractoriness Escape percentage change” value (73-FOLD free ETPC (4.1µM)) was 0%. The “STV (average raw data)” value (73-FOLD free ETPC (4.1µM)) was 1.74, the “STV percentage change” value (73-FOLD free ETPC (4.1µM)) was 182% and the “Triangulation (average raw data)” value (73-FOLD free ETPC (4.1µM)) was 157. The “Triangulation percentage change” value (73-FOLD free ETPC (4.1µM)) was 12%, the “Beat Escape (raw data)” value (73-FOLD free ETPC (4.1µM)) was 1 and the “EADs (raw data)” value (73-FOLD free ETPC (4.1µM)) was 0.
